“Also recorded” adds a separate entry of the source.
Legend:
[1] = Body weight changes in the tumor bearing mice (P815 xenograft)
[2] = biological target: KIT D816V kinase activity (KIT autophosphorylation at tyrosine 719) in HMC1.2 cells (Homo sapiens (Human), UniProt P10721, D816V/V560G); assay: HMC1.2 autophosphorylation assay (phospho-Y719 c-KIT AlphaLISA); type: cell-based; details: HMC1.2 mast cell leukemia cell line (KIT V560G, D816V), 90 minutes compound; read-out: INH-KIT-PHOS-HMC1.2
D816V KIT = D816V KIT (Homo sapiens (Human), UniProt P10721, D816V); assay: KIT D816V assay at Km (Caliper electrophoretic mobility shift); details: biochemical, 15 uM ATP (Km), 90 minutes at 25 C; read-out: INH KIT D816V
PDGFRA D842V = PDGFRA D842V (Homo sapiens (Human), UniProt P16234, D842V); assay: PDGFRA D842V assay at Km (Caliper electrophoretic mobility shift); details: biochemical, 15 uM ATP (Km), 90 minutes at 25 C; read-out: INH PDFGRA D842V
[3] = mouse, in vivo
P815 tumor cells = assay: P815 mastocytoma xenograft model, tumor growth; type: in vivo, mouse; details: P815 xenograft in female BALB/c nude mice; 3, 10, 30, 100 mg/kg p.o. QD × 10
Method: Compound 46 and Dasatinib were evaluated in a P815 mastocytoma xenograft model. P815 tumor cells (ATCC, Manassas, Va., cat # ATCC® TIB-64) were maintained in vitro as a suspension and monolayer culture in RPMI1640 medium supplemented with 10% fetal calf serum at 37° C. in an atmosphere of 5% CO2 in air. The tumor cells were sub-cultured twice weekly by trypsin-EDTA treatment. The cells growing in an exponential growth phase were harvested and counted for tumor inoculation.
Tumor sizes were measured every other day in two dimensions using a caliper, and the volume was expressed in mm^3 using the formula: V=0.5 a×b^2 where a and b were the long and short diameters of the tumor, respectively. […] T-C was calculated with T as the median time (in days) required for the treatment group tumors to reach a predetermined size (e.g., 1000 mm^3), and C as the median time (in days) for the control group tumors to reach the same size. […]
TGI was calculated for each group using the formula: TGI (%)=[1−(Ti−T0)/(Vi−V0)]×100; Ti is the average tumor volume of a treatment group on a given day, T0 is the average tumor volume of the treatment group on the day of treatment start, Vi is the average tumor volume of the vehicle control group on the same day with Ti, and V0 is the average tumor volume of the vehicle group on the day of treatment start. Tumor weight was measured at the endpoint. […]

KIT D816V kinase activity (KIT autophosphorylation at tyrosine 719) in HMC1.2 cells, sequence (P10721 26-976 V560G/D816V): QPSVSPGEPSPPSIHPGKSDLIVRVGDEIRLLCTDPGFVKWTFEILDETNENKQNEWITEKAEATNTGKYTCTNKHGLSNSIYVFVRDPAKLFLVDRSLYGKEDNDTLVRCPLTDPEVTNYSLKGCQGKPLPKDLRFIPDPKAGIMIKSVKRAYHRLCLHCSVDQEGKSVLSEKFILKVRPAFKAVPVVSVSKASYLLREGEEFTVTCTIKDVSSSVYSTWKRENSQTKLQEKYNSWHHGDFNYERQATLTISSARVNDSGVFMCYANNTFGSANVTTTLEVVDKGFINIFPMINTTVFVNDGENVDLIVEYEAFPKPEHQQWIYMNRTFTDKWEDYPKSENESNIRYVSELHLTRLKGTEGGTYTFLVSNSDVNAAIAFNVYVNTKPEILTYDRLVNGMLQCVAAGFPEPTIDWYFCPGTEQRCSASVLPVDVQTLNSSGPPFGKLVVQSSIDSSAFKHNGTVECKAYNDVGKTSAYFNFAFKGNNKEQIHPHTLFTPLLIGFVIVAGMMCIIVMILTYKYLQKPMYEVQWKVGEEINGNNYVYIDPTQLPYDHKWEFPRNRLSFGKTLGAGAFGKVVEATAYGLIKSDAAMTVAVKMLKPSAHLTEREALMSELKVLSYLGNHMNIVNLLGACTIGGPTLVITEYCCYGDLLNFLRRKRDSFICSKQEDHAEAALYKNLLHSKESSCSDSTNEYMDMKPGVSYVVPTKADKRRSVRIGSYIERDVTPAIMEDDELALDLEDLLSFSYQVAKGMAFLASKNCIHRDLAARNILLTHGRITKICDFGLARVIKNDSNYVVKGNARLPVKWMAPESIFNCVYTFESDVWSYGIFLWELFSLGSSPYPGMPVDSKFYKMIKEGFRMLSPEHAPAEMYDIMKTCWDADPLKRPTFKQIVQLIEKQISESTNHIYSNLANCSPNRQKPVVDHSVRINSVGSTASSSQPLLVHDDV
PDGFRA D842V, sequence (P16234 24-1089 D842V): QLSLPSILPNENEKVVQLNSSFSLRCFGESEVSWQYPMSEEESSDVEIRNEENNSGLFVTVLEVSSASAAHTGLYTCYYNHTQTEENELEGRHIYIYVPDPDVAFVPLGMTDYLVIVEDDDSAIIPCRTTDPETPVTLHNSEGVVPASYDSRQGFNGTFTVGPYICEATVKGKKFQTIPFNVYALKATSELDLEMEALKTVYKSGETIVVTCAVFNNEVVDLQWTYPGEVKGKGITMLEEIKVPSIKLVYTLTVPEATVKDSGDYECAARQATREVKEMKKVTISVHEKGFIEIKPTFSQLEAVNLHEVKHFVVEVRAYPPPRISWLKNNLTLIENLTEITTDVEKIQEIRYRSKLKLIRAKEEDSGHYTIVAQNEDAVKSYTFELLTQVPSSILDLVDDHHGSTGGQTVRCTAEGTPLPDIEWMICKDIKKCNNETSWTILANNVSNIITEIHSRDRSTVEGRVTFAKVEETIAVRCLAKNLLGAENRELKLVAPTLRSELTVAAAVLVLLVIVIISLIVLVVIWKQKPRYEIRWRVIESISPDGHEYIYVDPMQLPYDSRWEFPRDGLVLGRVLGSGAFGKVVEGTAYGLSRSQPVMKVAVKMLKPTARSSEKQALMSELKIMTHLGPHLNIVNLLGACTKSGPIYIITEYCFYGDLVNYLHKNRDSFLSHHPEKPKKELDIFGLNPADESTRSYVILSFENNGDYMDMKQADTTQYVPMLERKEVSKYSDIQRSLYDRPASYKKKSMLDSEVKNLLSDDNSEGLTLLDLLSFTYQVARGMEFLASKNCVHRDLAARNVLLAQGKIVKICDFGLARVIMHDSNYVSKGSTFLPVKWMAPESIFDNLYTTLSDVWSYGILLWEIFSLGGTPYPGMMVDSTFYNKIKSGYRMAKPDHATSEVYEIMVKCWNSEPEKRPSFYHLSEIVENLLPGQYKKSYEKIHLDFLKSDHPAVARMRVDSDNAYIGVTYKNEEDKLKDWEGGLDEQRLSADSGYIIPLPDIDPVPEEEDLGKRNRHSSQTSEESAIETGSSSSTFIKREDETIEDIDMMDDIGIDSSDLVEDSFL
D816V KIT, sequence (P10721 26-976 D816V): as the sequence (P10721 26-976 V560G/D816V) above, with G535V counted along it

| SMILES | body weight loss ([1]; Dasatinib 25 mg/kg p.o. BID × 10) | IC50 [2] [nM] | IC50 (D816V KIT) [nM] | IC50 (PDGFRA D842V) [nM] | body weight change ([1]; Compound 46 3-100 mg/kg p.o. QD × 10, even at the higher doses) | tolerability [3] | tumor growth inhibition (P815 tumor cells) |
| --- | --- | --- | --- | --- | --- | --- | --- |
| Cc1nc(Nc2ncc(C(=O)Nc3c(C)cccc3Cl)s2)cc(N2CCN(CCO)CC2)n1 [Dasatinib, reference compound] | more than 5% |  |  |  |  |  |  |
| Cn1cc(-c2cc3c(N4CCN(c5ncc([C@@](O)(c6ccc(F)cc6)C(F)F)cn5)CC4)ncnn3c2)cn1 [Compound 117] |  | < 50 | < 1 | 1.01 to 10 |  |  |  |
| CN(C)C(=O)c1ccc(-c2cc3c(N4CCN(c5ncc(Cc6ccccc6)cn5)CC4)ncnn3c2)cc1 [Compound 98] |  | 100 to 1000 | < 1 | < 1 |  |  |  |
| C[C@](O)(c1ccc(F)cc1)c1cnc(N2CCN(c3ncnn4cc(-c5ccccc5)cc34)CC2)nc1 [Compound 38] |  | 50 to 100 | 1.01 to 10 | 1.01 to 10 |  |  |  |
| Cn1cc(-c2cc3c(N4CCN(c5ncc([C@](C)(O)c6c(F)cc(F)cc6F)cn5)CC4)ncnn3c2)cn1 [Compound 115] |  | < 50 | 1.01 to 10 | < 1 |  |  |  |
| C[C@](N)(c1ccccc1)c1cnc(N2CCN(c3ncnn4cc(-c5ccc(F)cc5)cc34)CC2)nc1 [Compound 34] |  | 50 to 100 | < 1 | < 1 |  |  |  |
| Cn1cc(-c2cc3c(N4CCN(c5ncc(Sc6ccccc6F)cn5)[C@H](CO)C4)ncnn3c2)cn1 [Compound 97] |  | < 50 | 1.01 to 10 | 1.01 to 10 |  |  |  |
| C[C@](N)(c1ccc(F)cc1)c1cnc(N2CCN(c3ncnn4cc(-c5cn[nH]c5)cc34)CC2)nc1 [Compound 26] |  | < 50 | < 1 | < 1 |  |  |  |
| Cn1cc(-c2cc3c(N4CCN(c5ncc([C@@](C)(O)c6ccc(F)cc6)cn5)CC4)ncnn3c2)cn1 [Compound 46] |  | < 50 | < 1 | < 1 | less than 5% | well tolerated | effective in inhibiting tumor growth; also recorded: observable antitumor activity |
| CC[C@@H](c1ccc(F)cc1)c1cnc(N2CCN(c3ncnn4cc(-c5cnn(C)c5)cc34)CC2)nc1 (single isomer, unassigned) [Compound 41] |  | 50 to 100 | 1.01 to 10 | 1.01 to 10 |  |  |  |
| CCn1cc(-c2cc3c(N4CCN(c5ncc([C@@](C)(N)c6ccccc6)cn5)CC4)ncnn3c2)cn1 [Compound 35] |  | < 50 | < 1 | < 1 |  |  |  |
| C[C@@H](c1ccccc1)c1cnc(N2CCN(c3ncnn4cc(-c5cnn(C)c5)cc34)CC2)nc1 [Compound 10, (S)-6-(1-methyl-1H-pyrazol-4-yl)-4-(4-(5-(1-phenylethyl)pyrimidin-2-yl)piperazin-1-yl)pyrrolo[1,2-f][1,2,4]triazine] |  | < 50 | < 1 | < 1 |  |  |  |
| Cn1cc(-c2cc3c(N4CCN(c5ncc([C@@](C)(CO)c6ccc(F)cc6)cn5)CC4)ncnn3c2)cn1 [Compound 78] |  | < 50 | < 1 | < 1 |  |  |  |

Source: patent US10807985B2 (Blueprint Medicines Corporation, priority 2013, dated 2020)
